Patent US9834549B2, “3,3-disubstituted-(8-aza-bicyclo[3.2.1]OCT-8-yl)-[5-(1H-pyrazol-4-yl)-thiophen-3-yl]-methanones as inhibitors of 11 (β)-HSD1” (The University Of Edinburgh, priority 2010, dated 2017)
Read-outs that look alike come from different tables or passages of the source.

What was measured:
[1] = target: T1, human 11β-HSD1 (Homo sapiens, UniProt P28845); assay: Cellular in vitro 11β-HSD1 enzyme inhibition assay (SPA, HEK293/11β-HSD1 cells); format: cell-based
T1 construct: stably transfected with a construct containing the full-length gene coding for the human 11β-HSD1 enzyme; expressed in transfected cells; host or cells: HEK293 (stably transfected, HEK293/11β-HSD1)
Method: Compounds were assessed by a Scintillation Proximity Assay (SPA) performed according to the following protocol:
HEK293 cells were stably transfected with a construct containing the full-length gene coding for the human 11β-HSD1 enzyme to create HEK293/11β-HSD1 cells. Cells were routinely cultured in DMEM containing 10% calf foetal serum, 1% glutamine, and 1% penicillin and streptomycin. Prior to assay, cells were plated at 2×10^4 cells/well in 96-well poly-D-Lys coated flat-bottomed microplates and incubated in 5% CO2, 95% O2 at 37° C. for 24 hours. The media in each well was removed immediately before assay.
Compounds to be tested were dissolved in DMSO at 10 mM and serially diluted into water containing 10% DMSO. Diluted compounds at a volume of 10 μL were added to wells of a 96-well V-bottomed microplate. A solution of DMEM, 1% glutamine, 1% penicillin and streptomycin, and 22 nM tritiated cortisone was prepared and 90 μL added to each well of the assay plate. This solution (100 μL/well) was transferred to the plate containing the cells. The plate was then incubated in 5% CO2, 95% O2 at 37° C. for 2 hours.
Following this incubation, 50 μL of the assay solution was transferred to each well of a 96-well scintillation microplate. A mixture consisting of anti-mouse YSi SPA beads, pre-mixed with anti-cortisol antibody in assay buffer (50 mM Tris.HCl, pH 7.0; 300 mM NaCl; 1 mM EDTA, 5% glycerol) was prepared and 50 μL added to each well of the scintillation microplate. An adhesive strip was applied to the microplate and the plate gently shaken for at least 2 hours at room temperature, and then spun briefly on a low speed centrifuge. The plate was read on a scintillation counter suitable for 96-well microplates. For the calculation of percentage inhibition, a series of wells were added to the plate that represented the assay maximum and the assay minimum: one set that contained substrate without cells (minimum) and another set that contained substrate and cells without any compound (maximum).
The calculation of median inhibitory concentration (IC50) values for the compounds was performed using GraphPad Prism® software. Dose-response curves for each compound were plotted as fractional inhibition and data fitted to the four parameter logistic equation.

[2] = In vitro human liver microsomal stability assay; format: in vitro ADME; settings: human liver microsomes
Method: To predict in vivo metabolism of compounds, the stability of compounds incubated with human liver microsomes in vitro was determined. Human liver microsome preparations were stored at −80° C. and thawed on ice prior to use. The thawed microsomes were diluted to a concentration of 2 mg/mL in 50 mM sodium phosphate, pH 7.4. Reference and test compounds were prepared as 10 mM stocks in 100% DMSO and diluted to 1 mM in acetonitrile before use. Each compound was tested in triplicate as follows:
4 μL of test or reference compound was added to a well of a 24-well microplate and 0.5 mL of 4 mM NADPH added. The plate was then transferred to a shaker for 10 minutes at room temperature. 30 μL of the compound/NADPH solution was transferred to the well of a 96-well microplate and incubated at 37° C. for 5 minutes. 30 μL of human liver microsomes (pre-incubated at 37° C. for 5 minutes) was added to the well containing the compound/NADPH solution and the plate incubated for the selected period of time (typically 0 or 30 minutes). The reaction was stopped by adding 60 μL of ice cold […] trichloroacetic acid. The plate was centrifuged at 1000 rpm for 5 minutes at room temperature and the supernatant transferred to the well of a new 96-well V-bottomed microplate for mass spectrometric analysis.
(§1) Samples were analyzed by TSQ Quantum Discovery Tandem Mass Spectrometer and Surveyor Liquid Chromatogram (Thermo, Hemel-Hempstead, UK). 10 μL of each sample was injected in a mobile phase consisting of 60%:40% methanol:5 mM ammonium acetate at a flow rate of 0.5 mL/minute. The column used was a BDS hypersil, C18, 50×2.1 mm with a 5 μm particle size.
(§2) Each compound was tuned with a spray voltage of 3000 V and a capillary temperature of 300° C. and values for tube lens, CID and product ions were determined.
The peak area for each compound was measured in triplicate for the 0 and 30 minute samples and the average of each was reported. The percentage remaining after 30 minutes was calculated as the average peak area of the sample after 30 minutes divided by the average peak area at 0 minutes. The RSD was 10% or lower for each compound.

[3] = target: T2, human 11β-HSD2 (Homo sapiens, UniProt P80365); assay: Cellular in vitro 11β-HSD2 enzyme inhibition assay (CHO cells); format: cell-based; settings: CHO cells transfected with human 11β-HSD2
T2 construct: CHO cells stably transfected with the full-length gene coding for human 11β-HSD2 were used; expressed in transfected cells; host or cells: CHO (stably transfected)
T2 sequence (P80365 1-405): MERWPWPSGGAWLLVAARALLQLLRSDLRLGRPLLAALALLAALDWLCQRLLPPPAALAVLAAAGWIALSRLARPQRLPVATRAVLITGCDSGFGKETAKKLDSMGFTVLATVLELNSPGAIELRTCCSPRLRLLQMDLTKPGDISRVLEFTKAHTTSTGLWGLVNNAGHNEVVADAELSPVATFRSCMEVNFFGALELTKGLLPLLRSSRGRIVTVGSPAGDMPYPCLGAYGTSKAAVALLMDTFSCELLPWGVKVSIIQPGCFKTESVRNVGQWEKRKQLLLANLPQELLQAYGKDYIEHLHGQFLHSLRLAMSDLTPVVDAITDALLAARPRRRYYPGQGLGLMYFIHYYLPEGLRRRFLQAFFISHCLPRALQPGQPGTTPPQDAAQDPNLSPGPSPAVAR
Method: For measurement of inhibition of 11β-HSD2, CHO cells stably transfected with the full-length gene coding for human 11β-HSD2 were used. Assays were carried out in 96-well microplates containing 1×10^5 cells/well. Controls and compounds were plated as above, so that the final DMSO concentration in each well was 1%. To initiate the assay, 90 μL of a solution of HAMS F-12 medium containing 1% glutamine, 1% penicillin and streptomycin, and 22 nM tritiated cortisol was added to each well of the assay plate. The plate was then incubated in 5% CO2, 95% O2 at 37° C. for 16 hours.
The assay solutions were transferred to glass tubes and […] added to each tube. Each tube was vortexed thoroughly and the upper layer containing the tritiated steroid transferred to a fresh glass tube. The solvent was evaporated by placing the tubes in a heating block at 65° C. under a stream of nitrogen gas. 20 μL ethanol was added to each of the dried samples and vortexed briefly. Each sample was applied to a silica TLC plate and the plate dried. The plate was placed vertically in a glass tank containing 92% chloroform: 8% ethanol and the solvent allowed to rise up the plate. The plate was dried, placed in an imaging cassette, and overlayed with a tritium imaging plate for 1-2 days. The amount of enzyme inhibition in each sample was determined by measuring the intensity of the substrate and product spots using a phospho-imager. IC50 values for inhibitors were determined as described above for 11β-HSD1.

[4] = Oral exposure and tissue distribution in rats; format: in vivo, male Sprague Dawley rats; settings: rat, oral 10 mg/kg; for Cmax: male, Sprague Dawley, plasma, read-out: Plasma Cmax (maximum plasma concentration)
Method: The circulating plasma levels and tissue distribution of certain compounds were determined following oral administration of compound (10 mg/kg) to male Sprague Dawley rats. Rats (n=3 per group) were culled at 1, 4 and 6 hours post dosing and trunk blood and tissues (liver, adipose and brain) excised. Blood samples at 30 minutes and 2 hours post dosing were taken by tail nick from the 4 hour and 6 hour rats respectively.
Compound was triple extracted from plasma (prepared from blood by a high speed centrifugation step) spiked with 1 μg of a standard compound using ethyl acetate. Extracts were dried under nitrogen and re-suspended in 60% methanol/40% ammonium acetate (5 mM).
A known weight of tissue was homogenized in 3 volumes Krebs buffer. Compound was triple extracted with ethyl acetate from the supernatant of a low speed spin spiked with 1 μg of a standard compound. Extracts were dried under nitrogen and re-suspended in 60% methanol/40% ammonium acetate (5 mM).
as §1, with “Samples from plasma and tissue” for “Samples”
as §2
The peak area for each compound and for the internal standard was determined and the concentration of compound per gram of tissue or mL of plasma was calculated by comparison of the peak area ratio to a standard curve.

[5] = HEK293, potency groups, read-out: IC50 for 11β-HSD1 (HEK293)
[6] = HEK293 cells transfected with human 11β-HSD1, first value in cell, read-out: IC50 for 11β-HSD1 (HEK293)
[7] = HEK293 cells, value marked * in brackets, read-out: IC50 for 11β-HSD1 (HEK293), (*) average of at least two individual experiments

T1 sequence (P28845 whole entry): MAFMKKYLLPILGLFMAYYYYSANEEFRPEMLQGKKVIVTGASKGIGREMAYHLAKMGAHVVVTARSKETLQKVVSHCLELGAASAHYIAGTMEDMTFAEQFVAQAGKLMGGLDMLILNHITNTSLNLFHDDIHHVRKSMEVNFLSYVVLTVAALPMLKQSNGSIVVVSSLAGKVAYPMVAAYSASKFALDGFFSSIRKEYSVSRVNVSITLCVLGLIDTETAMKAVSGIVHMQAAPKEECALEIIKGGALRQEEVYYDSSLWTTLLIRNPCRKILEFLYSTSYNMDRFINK

Structure (SMILES) | IC50 [1, 5] [nM] | IC50 [1, 6] [nM] | IC50 [1, 7] [nM] | % Parent Remaining at 30 min [2] | IC50 [3] [nM] | Cmax [4] [ng/mL] | Liver Cmax (maximum liver concentration) [4]
O=C(c1csc(-c2cn[nH]c2)c1)N1C2CCC1CC(O)(c1ccccn1)C2 (stereo not shown) [XX-01] | ≤ 100 | 21 | 28 | +++ (61-100% +++) | > 10000 | > 1000 | ++ (3001-5000 ++)
O=C(c1csc(-c2cn[nH]c2)c1)N1C2CCC1CC(F)(c1ncccc1Cl)C2 (stereo not shown) [XX-13, [3-(3-Chloro-pyridin-2-yl)-3-fluoro-8-aza-bicyclo[3.2.1]oct-8-yl]-[5-(1H-pyrazol-4-yl)-thiophen-3-yl]-methanone] | ≤ 100 | 31 |  | ++ (31-60% ++) | > 10000 |  | 
N#CC1(c2ccccn2)CC2CCC(C1)N2C(=O)c1csc(-c2cn[nH]c2)c1 (stereo not shown) [XX-18] | ≤ 100 | 15 |  | +++ (61-100% +++) | > 10000 |  | 
O=C(c1csc(-c2cn[nH]c2)c1)N1C2CCC1CC(O)(c1cnccn1)C2 (stereo not shown) [XX-24] | ≤ 100 | 37 |  |  | > 10000 | 501 to 1000 | ++ (3001-5000 ++)
O=C(c1csc(-c2cn[nH]c2)c1)N1C2CCC1CC(O)(c1cscn1)C2 (stereo not shown) [XX-36] | ≤ 100 |  |  | +++ (61-100% +++) |  | > 1000 | ++ (3001-5000 ++)
O=C(c1csc(-c2cn[nH]c2)c1)N1C2CCC1CC(F)(c1cccnn1)C2 (stereo not shown) [XX-43] | ≤ 100 | 47 | 50 | +++ (61-100% +++) | > 10000 |  | 
O=C(c1csc(-c2cn[nH]c2)c1)N1CCC(O)(c2ncccc2Cl)CC1 [YY-02] | ≤ 100 | 49 | 41 | ++ (31-60% ++) | > 10000 | > 1000 | +++ (>5001 +++)
O=C(c1csc(-c2cn[nH]c2)c1)N1CCC(O)(c2ccncc2Cl)CC1 [YY-06] | ≤ 100 | 28 |  | ++ (31-60% ++) | > 10000 |  | 
